Source: patent US10106540B2, “HDAC6 inhibitors and their uses” (Universität Regensburg, priority 2014, dated 2018)

Assays:
HEL leukemic cells = experiment: Western blot analysis in HEL leukemic cells (JAK2 V617F); format: cell-based, human; details: 24 h, Western blot
Protocol: Human leukemia cell line HEL with JAK2 V617F mutation (DSMZ Accession No: ACC-11).
The assay is carried out as described in Buchwald et al. 2010 and Buchwald et al. 2013. Briefly, cells were collected and lysed in NET-N buffer (150 mM NaCl, 1 mM EDTA, 50 mM Tris-HCl (pH 7.8), 0.5% Nonidet P-40 (NP-40), 1 mM phenylmethylsulfonyl fluoride, 0.5 mg/ml leupeptin and 0.5 mg/ml pepstatin) followed by mild sonification on ice. Protein lysate ([…]) was boiled in Laemmli buffer and separated on SDS-polyacrylamide gel electrophoresis for western blotting with specific antibodies. All lysates were assessed by Bradford assay for protein concentrations.

HCT-116 cells = experiment: Western blot analysis in HCT-116 colon cancer cells; format: cell-based, human
Protocol: FIG. 5. Various cancer cells were treated for 24 h as shown and tested by Western blot analysis. […] Human colon cancer cell lines RKO (ATCC Accession No: CRL-2577) and HCT-116 (DSMZ Accession No: ACC-581). Western Blot Analysis a […] Protein lysate ([…]) was boiled in Laemmli buffer and separated on SDS-polyacrylamide gel electrophoresis for western blotting with specific antibodies. All lysates were assessed by Bradford assay for protein concentrations.

UXF 1138 = experiment: In vitro activity against solid tumor cell lines (FACS analysis method a); format: cell-based; details: Homo sapiens, Uterus
Protocol: Human uterus cancer cell line UXF 1138 (Oncotest GmbH, Freiburg, Germany)
(§1) The assay is carried out as described in Pietschmann et al., 2012 and Brandl et al. 2012. Briefly, 10^5 cells were fixed in 1 ml 70% EtOH with 0.05% Tween-20 overnight at 4° C. The following day, cells were washed with 3 ml 38 mM sodium citrate, pH 7.4, and incubated for 20 min at 37° C. in 0.5 ml 38 mM sodium citrate, pH 7.4, supplemented with 50 μg/ml propidium iodide and 10 μg/ml RNase-A. DNA contents of the cells were measured by fluorescence-activated cell sorter (FACS). This method allows detection of the apoptotic subG1-fraction, which has a DNA content below 2n due to apoptotic cleavage of DNA. Equally, the cell cycle profile can be assessed with this method.
(§2) The novel HDAC6 inhibitors were tested in a panel of tumor cell lines for cytostatic/toxic activities (see Table 2).

BV173 cells = experiment: Cell cycle analysis by PI staining and flow cytometry (FACS method b); format: cell-based, human; details: BV173, PI staining
Protocol: 150,000 cells were seeded in 12 well plate and incubated for 2 h for adaption. Cells were harvested on ice and prepared for FACS analysis (following method b). The FACS blots were generated using FACS diva software. n=1
After harvesting the cells on ice and washing them with 1 ml cold PBS, the Pellet were fixed for 1 h in 80% Ethanol by −20° C. After centrifugation the supernatant was discarded and the pellet was resuspended in 333 μl PBS with 10 μg RNase. The cells were incubated 1 h at room temperature with RNase before adding propidium iodide to a final concentration of 16.4 μg/ml and measured by flow cytometry (BD FACS Canto II).

HEK293T cells = experiment: HDAC6 overexpression model in HEK293T cells, Western blot; format: cell-based, human; details: 500 nM MARB1, 48 h
Protocol: However, it is mention worth that MARB1 increases the amount of acetylated tubulin in cells with HDAC6 overexpression. 400,000 cells were seeded on a 6 well plate and incubated for 24 h for adapting and the transfection was allowed for 48 h. […] HSP90 and Tubulin were used as loading control. The cells were collected on ice using Trypsin/EDTA. The overexpression was identified by using the HDAC6 antibody described in Antibodies and Plasmids. n=3 (B) The cells were transfected as described previously and collected under sterile conditions using Trypsin/EDTA. Cells were centrifuged and resuspended in new DMEM with FBS and pen/strep. The cells were splitted 1:2 and seeded per sample into two wells. After 24 h adhesion time cells were stimulated with MARB1 for 48 h. Thereafter cells were collected on ice using Trypsin/EDTA and prepared for SDS-PAGE. […] The samples were generated as described previously. HSP90 was used as loading control. n=1 […]
Western Blot analysis method b was used for the blots illustrated in FIGS. 6 to 9 and 11: Equal amounts of proteins were separated with a sodium dodecyl sulfate-polyacrylamide gel electrophoresis (SDS-PAGE) using an electrophoresis buffer by Laemmli with 1% SDS. […] Fluorescence coupled secondary antibodies (LI-COR) were used and the signal was measured on the Odyssey to detect the proteins. […]

MAXF 401 = experiment: In vitro activity against solid tumor cell lines (FACS analysis method a); format: cell-based; details: Homo sapiens, MAXF401, Breast
Protocol: (§3) Human breast cancer cell lines MAXF 401 and MAXF MCF-7 (Oncotest GmbH, Freiburg, Germany)
as §1, §2

MAXF MCF-7 = experiment: as above; format: cell-based; details: Homo sapiens, MCF7, Breast
Protocol: as §3, §1, §2

[1] = tested on: 42 solid tumor cell lines; experiment: In vitro activity against solid tumor cell lines, mean of all lines; format: cell-based; details: average IC50 value from all 42 measurements

With CN1C(=O)C2CN(Cc3c2c2ccccc2n3Cc2ccc(C(=O)NO)cc2)C1=O (stereo not shown) [MARB1, N-Hydroxy-4-((4-methyl-3,5-dioxo-3,4,5,6-tetrahydro-2,6-methano[1,3]diazocino[5,6-b]indol-11(1H)-yl)methyl)benzamide] the “concentration with about the same potency in hyperacetylation of tubulin-α” value (HEL leukemic cells) was about 1000 nM, the “tubulin acetylation and degradation” value (HCT-116 cells; 1 μM, 24 h (FIG. 5B)) was “triggers the hyperacetylation of tubulin without causing its degradation” and the “tubulin acetylation and degradation” value (HCT-116 cells; HCT-116 cells, 24 h) was “starts the hyperacetylation of tubulin in colon carcinoma cells (RKO and HCT-116 cells) without destroying it”. For the same compound, the IC50 (UXF 1138) was 1580 nM, the “changes in the cell cycle” value (BV173 cells) was “no changes in the cell cycle” and the subG1 population (BV173 cells) was “no increase”. For the same compound, the “tubulin acetylation in HDAC6 flag transfected cells” value (HEK293T cells) was “high induction of tubulin acetylation”, the IC50 (MAXF 401) was 2280 nM and the IC50 (MAXF MCF-7) was 2330 nM. For the same compound, the IC50 [1] was 5030 nM.
